Measured values as given in patent EP2351758B1, “METAL COMPLEXES, A METHOD FOR PREPARING SAME, RADIOPHAR[…] BASED THEREON” (Zakrytoe Aktsionernoe Obschestvo "Farm-Sintez", priority 2008, dated 2010).
Where two headings read alike, the source gives them in different places.

Experiments:
[1] = 3 hours after administration, cited from earlier work
[2] = Pharmacokinetics (distribution in organs and tissues) in intact female rats after intravenous introduction; format: in vivo; settings: for Blood / Femur / Kidneys / Liver / Skeleton / Stomach / Urinary bladder (1, 3 h) / Excretion (5, 24): intact female rats, i.v.
Procedure: (§1) The experiments were run on the intact scrub albino rats with modeled osseous pathology. The osseous pathology was imitated by the femur fracture.
(§2) To prepare the composition, 5.0 ml of the sodium pertechnetate ^99mTc from the technetium generator (FSP 42-0225-4528-03, FSP 42-0018-2694-02) were injected into the lyophilizate vial by puncturing the rubber stopper with a syringe needle; then the vial was agitated and cured 20 minutes. The 0.2 ml volume of the composition was injected into the caudal vein. 1, 3, 5, and 24 hours after injection the animals were devitalized by decapitation; then the samples of blood, liver, kidneys, stomach, right and left femurs, urinary bladder with contents were taken. The radionuclide in organs and tissues was determined by the direct radiometry.
(§3) The statistical treatment used the Student's method.

[3] = Pharmacokinetics (distribution in organs and tissues) in female rats with modeled osseous pathology (femur fracture) after intravenous introduction; format: in vivo; settings: for Blood / Femur, fractured / Femur, normal / Kidneys / Liver / Skeleton / Stomach / Urinary bladder (1, 3 h) / Excretion (5, 24): female rats with modeled osseous pathology, i.v.; for Delayed retention index: ratio of concentration in femur with modeled pathology to healthy femur
Procedure: as §1, §2
The delayed retention index was determined as the ratio of division of the composition concentration in the femoral bone with the modeled osseous pathology and in the healthy femoral bone.
as §3

[4] = intact animals, 3 hours after introduction

## 99Tcm labeled zoledronate (ZL) [known solution (Wang et al)]
[1]; known solution (Wang et al)
  skeletal retention of RM: 34.2%
[1]; prior metal complex (Wang et al)
  retention level in the liver: 13.4 % of the doze injected

## Technetium-99m in form of complex with zoledronic acid [zoledronic acid, 99mTc]
[2]; 3 hours after administration
  retention level in the liver: 1.0 % of the doze injected
[2]; 3 hours after the administration
  skeletal retention of RM: 47.3 % of the dose injected
[2]; 5 hours after the study start
  activity level in blood: trace
[2]; [4]
  excretion: 30%
  retention in the skeleton: 47%
[2]; intact animals, intravenous injection, in one hour
  injected activity localizes in the skeleton: up to 48 % of the injected activity
[2]; intact animals, intravenous injection, in one hour, 60 min
  excreted from the organism with the urine: 45%
[2]; 1 h
  Blood: 1.7 ± 0.27 % dose/organ
  Femur: 1.8 ± 0.16 % dose/organ
  Kidneys: 1.3 ± 0.17 % dose/organ
  Liver: 0.8 ± 0.12 % dose/organ
  Skeleton: 48.1 ± 4.36 % dose/organ
  Stomach: 0.1 ± 0.03 % dose/organ
  Urinary bladder (1, 3 h): 45.4 ± 4.03 % dose/organ
[2]; 3 h
  Blood: 0.9 ± 0.38 % dose/organ
  Femur: 1.9 ± 0.35 % dose/organ
  Kidneys: 0.9 ± 0.21 % dose/organ
  Liver: 1.0 ± 0.27 % dose/organ
  Skeleton: 47.3 ± 2.89 % dose/organ
  Stomach: 0.1 ± 0.01 % dose/organ
  Urinary bladder (1, 3 h): 30.1 ± 4.41 % dose/organ
[2]; 5 h
  Blood: 0.4 ± 0.03 % dose/organ
  Excretion (5, 24): 52.4 ± 2.80 % dose/organ
  Femur: 1.6 ± 0.11 % dose/organ
  Kidneys: 1.2 ± 0.13 % dose/organ
  Liver: 0.6 ± 0.11 % dose/organ
  Skeleton: 42.9 ± 2.93 % dose/organ
  Stomach: 0.1 ± 0.04 % dose/organ
[2]; 24 h
  Blood: traces
  Excretion (5, 24): 39.1 ± 5.00 % dose/organ
  Femur: 1.8 ± 0.06 % dose/organ
  Kidneys: 0.6 ± 0.32 % dose/organ
  Liver: 0.2 ± 0.13 % dose/organ
  Skeleton: 49.6 ± 1.77 % dose/organ
  Stomach: 0.3 ± 0.05 % dose/organ
[3]; 1 h
  Blood: 1.7 ± 0.71 % dose/organ
  Femur, fractured: 4.2 ± 1.04 % dose/organ
  Femur, normal: 2.1 ± 0.20 % dose/organ
  Kidneys: 1.8 ± 0.83 % dose/organ
  Liver: 1.7 ± 0.58 % dose/organ
  Skeleton: 57.7 ± 5.54 % dose/organ
  Stomach: 0.4 ± 0.03 % dose/organ
  Urinary bladder (1, 3 h): 35.1 ± 10.53 % dose/organ
  Delayed retention index: 2.0
[3]; 3 h
  Blood: 2.0 ± 0.81 % dose/organ
  Femur, fractured: 4.0 ± 1.34 % dose/organ
  Femur, normal: 1.9 ± 0.42 % dose/organ
  Kidneys: 1.4 ± 0.68 % dose/organ
  Liver: 1.1 ± 0.42 % dose/organ
  Skeleton: 46.6 ± 7.81 % dose/organ
  Stomach: 0.2 ± 0.09 % dose/organ
  Urinary bladder (1, 3 h): 44.8 ± 3.89 % dose/organ
  Delayed retention index: 2.1
[3]; 5 h
  Blood: 0.5 ± 0.01 % dose/organ
  Excretion (5, 24): 43.4 ± 5.05 % dose/organ
  Femur, fractured: 3.1 ± 0.70 % dose/organ
  Femur, normal: 1.9 ± 0.20 % dose/organ
  Kidneys: 0.9 ± 0.06 % dose/organ
  Liver: 1.0 ± 0.05 % dose/organ
  Skeleton: 49.9 ± 5.44 % dose/organ
  Stomach: 0.4 ± 0.05 % dose/organ
  Delayed retention index: 1.7
[3]; 24 h
  Blood: 0.7 ± 0.01 % dose/organ
  Excretion (5, 24): 52.5 ± 10.86 % dose/organ
  Femur, fractured: 2.5 ± 0.05 % dose/organ
  Femur, normal: 1.4 ± 0.40 % dose/organ
  Kidneys: 0.5 ± 0.08 % dose/organ
  Liver: 0.5 ± 0.09 % dose/organ
  Skeleton: 38.0 ± 11.02 % dose/organ
  Stomach: traces
  Delayed retention index: 1.9
